Reference: PubChem BioAssay (NCI)
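Results reflect a 48-hour exposure of cells in 96-well plates to compound at five concentrations. GI50 is the concentration that inhibits growth by half. TGI: concentration producing complete growth inhibition.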

Key:
Experiment in all cases: NCI tumour cell line growth inhibition, 48 h
OVCAR-4 ovarian = system: OVCAR-4 ovarian
NCI-H23 lung = system: NCI-H23 lung
SK-MEL-28 melanoma = system: SK-MEL-28 melanoma
BT-549 breast = system: BT-549 breast
NCI-H522 lung = system: NCI-H522 lung
HL-60(TB) leukemia = system: HL-60(TB) leukemia
SN12C renal = system: SN12C renal
SNB-75 CNS = system: SNB-75 CNS
M14 melanoma = system: M14 melanoma
HOP-62 NSCLC = system: HOP-62 NSCLC
HT29 colon = system: HT29 colon
UO-31 renal = system: UO-31 renal
RXF 393 renal = system: RXF 393 renal
NCI-H226 lung = system: NCI-H226 lung
OVCAR-3 ovarian = system: OVCAR-3 ovarian
A498 renal = system: A498 renal
A549 NSCLC = system: A549 NSCLC
PC-3 prostate = system: PC-3 prostate
TK-10 renal = system: TK-10 renal
IGROV1 ovarian = system: IGROV1 ovarian
SF-295 CNS = system: SF-295 CNS
786-0 renal = system: 786-0 renal
T-47D breast = system: T-47D breast
OVCAR-8 ovarian = system: OVCAR-8 ovarian
U251 CNS = system: U251 CNS
LOX IMVI melanoma = system: LOX IMVI melanoma
HOP-92 NSCLC = system: HOP-92 NSCLC
CAKI-1 renal = system: CAKI-1 renal
SF-268 CNS = system: SF-268 CNS
SNB-19 CNS = system: SNB-19 CNS
SF-539 CNS = system: SF-539 CNS
SW-620 colon = system: SW-620 colon
MDA-MB-231 breast = system: MDA-MB-231 breast
K-562 leukemia = system: K-562 leukemia
KM12 colon = system: KM12 colon
NCI/ADR-RES ovarian = system: NCI/ADR-RES ovarian
OVCAR-5 ovarian = system: OVCAR-5 ovarian
SK-MEL-5 melanoma = system: SK-MEL-5 melanoma
UACC-257 melanoma = system: UACC-257 melanoma
RPMI-8226 leukemia = system: RPMI-8226 leukemia
EKVX NSCLC = system: EKVX NSCLC
DU-145 prostate = system: DU-145 prostate
SK-OV-3 ovarian = system: SK-OV-3 ovarian
HCT-15 colon = system: HCT-15 colon
HCC-2998 colon = system: HCC-2998 colon
MALME-3M melanoma = system: MALME-3M melanoma
MCF7 breast = system: MCF7 breast
CCRF-CEM leukemia = system: CCRF-CEM leukemia
COLO 205 colon = system: COLO 205 colon
UACC-62 melanoma = system: UACC-62 melanoma
SK-MEL-2 melanoma = system: SK-MEL-2 melanoma
HS 578T breast = system: HS 578T breast
MDA-MB-435 = system: MDA-MB-435
SR leukemia = system: SR leukemia
HCT-116 colon = system: HCT-116 colon
ACHN renal = system: ACHN renal

## CCC(=C/[C@H](C)C/C=C/C(C)=C/[C@@H](C)C(=O)[C@@H](C)[C@H](O)[C@@H](C)CC)/C=C/[C@@H]1OC(=O)C=C[C@H]1C
OVCAR-4 ovarian
  GI50: < 10 nM
  TGI: 1500 nM
NCI-H23 lung
  GI50: < 10 nM
  TGI: 4030 nM
SK-MEL-28 melanoma
  GI50: < 10 nM
  TGI: 1580 nM
BT-549 breast
  GI50: < 10 nM
  TGI: 1750 nM
NCI-H522 lung
  GI50: < 10 nM
  TGI: < 10 nM
HL-60(TB) leukemia
  GI50: < 10 nM
  TGI: < 10 nM
SN12C renal
  GI50: < 10 nM
  TGI: 1410 nM
SNB-75 CNS
  GI50: < 10 nM
  TGI: < 46.5 nM
M14 melanoma
  GI50: < 10 nM
  TGI: 10.3 nM
HOP-62 NSCLC
  GI50: < 10 nM
  TGI: < 10 nM
HT29 colon
  GI50: < 10 nM
  TGI: 1400 nM
UO-31 renal
  GI50: < 10 nM
RXF 393 renal
  GI50: < 10 nM
  TGI: < 10 nM
NCI-H226 lung
  GI50: < 10 nM
  TGI: 53.9 nM
OVCAR-3 ovarian
  GI50: < 10 nM
  TGI: < 10 nM
A498 renal
  GI50: < 10 nM
  TGI: < 10 nM
A549 NSCLC
  GI50: < 10 nM
  TGI: 1860 nM
PC-3 prostate
  GI50: < 10 nM
  TGI: 1520 nM
TK-10 renal
  GI50: < 10 nM
  TGI: 1520 nM
IGROV1 ovarian
  GI50: < 10 nM
SF-295 CNS
  GI50: < 10 nM
786-0 renal
  GI50: < 10 nM
  TGI: < 10 nM
T-47D breast
  GI50: < 10 nM
  TGI: 2130 nM
OVCAR-8 ovarian
  GI50: < 10 nM
  TGI: 1410 nM
U251 CNS
  GI50: < 10 nM
LOX IMVI melanoma
  GI50: < 10 nM
  TGI: < 10 nM
HOP-92 NSCLC
  GI50: < 10 nM
  TGI: < 10 nM
CAKI-1 renal
  GI50: < 10 nM
  TGI: < 10 nM
SF-268 CNS
  GI50: < 10 nM
SNB-19 CNS
  GI50: < 10 nM
SF-539 CNS
  GI50: < 10 nM
SW-620 colon
  GI50: < 10 nM
  TGI: 1430 nM
MDA-MB-231 breast
  GI50: < 10 nM
  TGI: 1770 nM
K-562 leukemia
  GI50: < 10 nM
  TGI: 1070 nM
KM12 colon
  GI50: < 10 nM
  TGI: 126 nM
NCI/ADR-RES ovarian
  GI50: < 10 nM
  TGI: 2170 nM
OVCAR-5 ovarian
  GI50: < 10 nM
  TGI: 1800 nM
SK-MEL-5 melanoma
  GI50: < 10 nM
  TGI: < 10 nM
UACC-257 melanoma
  GI50: < 10 nM
RPMI-8226 leukemia
  GI50: < 10 nM
  TGI: < 10 nM
EKVX NSCLC
  GI50: < 10 nM
  TGI: 13000 nM
DU-145 prostate
  GI50: < 10 nM
  TGI: 4420 nM
SK-OV-3 ovarian
  GI50: < 10 nM
  TGI: < 11.5 nM
HCT-15 colon
  GI50: < 10 nM
  TGI: 396 nM
HCC-2998 colon
  GI50: < 10 nM
  TGI: < 10 nM
MALME-3M melanoma
  GI50: < 10 nM
  TGI: 15.7 nM
MCF7 breast
  GI50: < 10 nM
  TGI: 1230 nM
CCRF-CEM leukemia
  GI50: 20.1 nM
  TGI: 160 nM
COLO 205 colon
  GI50: < 10 nM
  TGI: < 16.6 nM
UACC-62 melanoma
  GI50: < 10 nM
SK-MEL-2 melanoma
  GI50: < 10 nM
  TGI: < 10 nM
HS 578T breast
  GI50: < 10 nM
  TGI: 1950 nM
MDA-MB-435
  GI50: < 10 nM
  TGI: < 10 nM
SR leukemia
  GI50: < 10 nM
  TGI: 115 nM
HCT-116 colon
  GI50: < 10 nM
  TGI: < 10 nM
ACHN renal
  GI50: < 10 nM
  TGI: 1110 nM
